The values that follow come from patent US20210393553A1, “PHARMACEUTICAL COMBINATIONS FOR THE TREATMENT OF PAIN” (IMUNEKS FARMA ILAC SANAYI VE TICARET A.S., priority 2018, published 2021).

For assay [1], the system named is female Albino Wistar rats. Nature of the assay: Hot plate test (heat induced pain model). The format is in vivo. Background: Thermal pain tests record how soon the animal reacts.
Another assay has as its system rats. Nature of the assay: Tail Flick test. The format is in vivo.

Values joined by “and” are separate entries in the source; they are usually repeats but may differ in a detail not shown here. Equal values may be shown once.

Regarding `COc1cccc(C2(O)CCCCC2CN(C)C)c1` (stereo not drawn) [Tramadol], in assay [1] (rat, in vivo), the “time of peak of activity in hot plate test” value is 30 min. The “hot plate test latency” value in assay [1] (rat, in vivo, po) is 5.49 s and 6.90 s and 6.03 s and 6.19 s. Besides, the “tail flick results (tail flicking reaction time)” value in the assay with rats (rat, in vivo, po) stood at 5.81 s.
Regarding `CC(C(=O)O)c1ccc(-c2ccccc2)c(F)c1` (stereo not drawn) [FBP, Flurbiprofen], the “hot plate test latency” value in assay [1] (15 min after oral gavage, hot plate 52.5° C., group average of 7 rats, cut-off 20 seconds, doses per Table 2) came to 4.87 s; in assay [1] (30 min after oral gavage, hot plate 52.5° C., group average of 7 rats, cut-off 20 seconds, doses per Table 2), 5.65 s; in assay [1] (45 min after oral gavage, hot plate 52.5° C., group average of 7 rats, cut-off 20 seconds, doses per Table 2), 5.15 s; in assay [1] (60 min after oral gavage, hot plate 52.5° C., group average of 7 rats, cut-off 20 seconds, doses per Table 2), 4.96 s. In addition, the “analgesic effect in the hot plate test, in words” value in assay [1] (comparison between groups / versus placebo) is given as “lowest analgesic effect compared to all the other groups except the placebo group”. For the same molecule, the “tail flick results (tail flicking reaction time)” value in the assay on rats (1 hour after oral administration by gavage, same dosages as hot plate study, average of 3 measurements) amounted to 4.95 s.
